Data reported in patent US7605280B2, “Anthraquinone and its derivatives” (Biostatus Limited, priority 1998, dated 2009).

Test system: viable HL60 cells
Assay: CLSM analysis of nuclear fluorescence in viable cells
Type: cell-based, human
Details: 10 μM for 1 h
Description: The system used was a Leica TCS 4D (LaserTechnik Gmbh, Germany) scanner coupled to a Leitz DM R microscope and operating with an Ominchrome argon/krypton laser. The laser provided emission lines at 488, 568 and 647 nm with variable power. Coverslip cultures were washed briefly in PBS, mounted in inverted positions on glass slides, the coverslips being supported at the edges by a piping of petroleum jelly to prevent the cells from being compressed. The slides were examined immediately using ×100 or ×40 oil immersion objective lenses with mid-range pinhole and photomultiplier gain settings. Excitation/emission wavelengths for DRAQ5, fluorescein and rhodamine 123 were 647 nm/>665 nm, 488 nm/>515 nm and 488 nm/>590 nm respectively. Gain settings were adjusted such that the most fluorescent drug-treated sample gave pixel intensities just below saturation. The black level/offset was adjusted to give effectively zero background (<4 for pixel value) after 16× line noise filtration of images for untreated controls. […]
Thus, FIG. 2h to k show simultaneous CLSM capture of transmission (panels h and j) and the corresponding far red/low infra-red fluorescence (panels i and […] respectively) images of viable HL60 cells exposed to either 10 μM DRAQ5 or 10 μM DRAQ5N for 1 h. • 1. […]

SMILES: CN(C)CCNc1ccc(O)c2c1C(=O)c1c(O)ccc(NCCN(C)C)c1C2=O [DRAQ5]
- integrated nuclear fluorescence intensity per nucleus section, DRAQ5 relative to DRAQ5N-treated cells: approximately 10 fold
